One data set relates to cortical neurons. The data set can be described thus: Neuroprotection against Aβ25-35 amyloid peptide toxicity in neuronal cultures (MTT test). Type of data set: cell-based, Wistar rat. The note with it: Aβ25-35 33.5 μM. On the procedure: Aβ25-35 peptide contains the neurotoxic fragment of the amyloid peptide and is a tool classically used to study the neuroprotective effects of compounds. At the beginning of each experiment, the neuronal cultures aged 7-10 days are changed with fresh culture medium and treated with the etazolate inhibitor compound, six hours before the addition of Aβ25-35 amyloid peptide at a concentration of 33.5 μM In a classical and reproducible manner, this concentration generates 30% to 40% toxicity in neuronal cultures. Several experiments are undertaken to characterize the neuroprotective effect of etazolate. […] In order to determine whether it is the inhibition of sAPPalpha or its production that provides the neuroprotective effect of etazolate against amyloid peptide, a neutralizing anti-sAPPα antibody (3E9 antibody) and alpha secretase inhibitors are respectively used. For the neutralization of sAPPα, 3E9 antibody (5 μg/ml) is added to the cortical cells at the same time as the etazolate. Two alpha secretase inhibitors, the compound Furin Inhibitor […], Sohn J H, Lee […], Mook-Jung I. Furin is an endogenous regulator of alpha-secretase associated APP processing. Biochem Biophys Res Commun. 2006 Oct. 20; 349(2):654-9.) and TAPI (Slack […]. […] Biochem J. 2001 Aug. 1; 357(Pt 3):787-94) are used in pretreatment one hour before the addition of the etazolate. All the treatments are effected at least twice and in at least two different cultures. After an incubation of 48 hours, the toxicity is measured by an MTT test. The results, normalized to the untreated mean, are statistically analyzed by the Wilcoxon test. The significant value is determined at p less than or equal to 0.05. The toxicity is measured by using the MTT test. After incubation with the compounds, MTT is added at a final concentration of 0.5 mg/mL by wells. The plates are then incubated for 30 minutes at 37° C. at night. The medium is drawn off and the crystals are resuspended in 500 μL of DMSO (dimethylsulfoxide). The absorbance at 550 nm is read and the viability percentage is calculated.
(In general: Tetrazolium assays rely on reduction of a dye to a coloured formazan, in cell work by metabolically active cells.)

Data set [1] concerns sAPPalpha. Briefly: sAPPalpha production in HEK293 cells over-expressing human APP (ELISA and Western blot). The class given is cell-based. The note with it: HEK293 cells stably over-expressing human APP; variable concentrations; 24 hours; FIG. 5. On the procedure:
HEK293 cells transfected in a stable manner over-expressing human APP were kept in Modified Eagle medium containing Earle salt and supplemented by 10% fetal calf serum (FCS), 2 mM L-glutamine (Sigma, Lyon, France), 1× Nonessential Amino Acids and antibiotics. The cells were treated for 48 hours after spreading variable concentrations of the molecules indicated on 10-cm plates, or with DMSO as a carrier, for 24 hours. The sAPPalpha had been measured by ELISA and Western blot by means of commercially available antibodies.
(In an ELISA, binding on a coated surface is turned into a signal by an enzyme label.)

Data set [2] has as its system sAPPalpha. Briefly: sAPPalpha production in vivo in guinea pig brain (ELISA). The note with it: 10 mg/kg per os once a day for 15 days; guinea pig cortices; versus excipient; p<1E-4; FIG. 7.
Experimental: The production of sAPPalpha was studied in vivo in the guinea pig, a physiological model for APP processing in the brain. The etazolate or the excipient (physiological saline solution) was administered to male Hartley albino guinea pigs, weighing 250-270 g at the beginning of the experiment, once a day for 15 consecutive days, per os in a dose of 10 mg/kg. One h after the last administration, the guinea pigs were sacrificed and the brains immediately extracted, frozen in nitrogen and stored at −80° C. The cortices were homogenized at 4° C. in a pH 7.5 20 mM Tris base solution containing 0.2% Triton X-100, 50 μg/mL, gentamicin and a protease inhibitor cocktail. The soluble sAPPalpha was measured by an ELISA test and the results normalized with regard to the quantity of proteins present in the extracts.
For data set [3], the system named is sAPPalpha. Briefly: sAPPalpha production by cortical neurons (Western blot). The class given is cell-based, Wistar rat. The note with it: 0.2 and 2 μM for 24 h; Western blot densitometry; versus non-treated cultures; FIG. 6. On the procedure: The production of sAPPalpha was measured in cortical neurons isolated from 17-day-old Wistar rat embryos. The cells are obtained from cortical structures that are dissected into a solution containing 0.25% trypsin. The dissociated cells are seeded at a density of 500,000 per cm^2 in a Neurobasal medium containing additives (1×B27, 2 mM L-glutamine, 0.6% glucose, antibiotics and antimycotics, as well as 2% horse serum) in culture dishes coated with 6 μg/mL, of polyornithine. The cells are kept at 37° C. and 5% CO2. 24 hours after seeding, the cells are treated with 5 μM AraC (5 cytosine arabinofuranoside) as an antimitotic agent. After 4 days in vitro, half the medium is exchanged for medium without horse serum and the culture is kept for maturation in this medium for 7 to 10 days. The sAPPalpha was measured by Western blot by means of antibodies available commercially after one change of medium and accumulation in fresh medium for 24 hours. Quantification was done by densitometric analyses of scanned autoradiographic images. […] The results presented are the mean±SEM of three independent experiments performed in duplicate and are expressed the form of percentage of the control (non-treated cultures).
In general terms: A western blot detects proteins with antibodies after separation by electrophoresis.

Results on two compounds are retold here after patent US20090317842A1, “Methods and Tools for The Therapy of Neurodegenerative Pathologies” (EXONHIT THERAPEUTICS SA, priority 2006, published 2009).

Turning to TAPI [reference compound], the “effect on the neuroprotection induced by etazolate” value in the data set with cortical neurons (agent added before or with etazolate, cortical neurons, FIGS. 8-10) is given as “inhibited”.

As for `CCOC(=O)c1cnc2c(cnn2CC)c1NN=C(C)C` [etazolate], in the data set with sAPPalpha [1], the sAPPalpha secretion entry is “induces sAPPalpha secretion”. Also, the cellular viability in the data set on cortical neurons (0.2 μM etazolate, 48 hours, FIG. 8) is 90%. Besides, in the data set on cortical neurons (co-treatment of neurons, 48 hours, FIG. 8), the “protector effect on neuronal death induced by Aβ25-35” value is reported as “dose-dependent protector effect”. The “quantity of sAPPalpha measured in the brains” value in the data set with sAPPalpha [2] was “increase by a factor of three”. Further, in the data set with sAPPalpha [3], the “salting out of sAPPalpha from cortical neurons” value was “stimulates the salting out of sAPPalpha”.
